Assay results published in PubChem BioAssay (NCI).
Where “and” joins values, the source holds several entries; their conditions need not be identical. Equal entries are not always repeated.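 Interpolation was linear, between the two tested concentrations surrounding the appropriate level; five concentrations were tested over 48 hours in 96-well plates. GI50: concentration for 50% inhibition of growth. The concentration for full growth arrest is given as TGI.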 Where a SMILES comes first, the peptide text is derived from it. [ ]: non-standard residue; d: D form. The star is where a group is joined. X28 = COC1=CC(=O)N(C(=O)[C@@H](O*)C(C)C)[C@H]1Cc1ccccc1; NMeL = CN[C@@H](CC(C)C)C(=O)O; Cbz = O=C(OCc1ccccc1)*

What was measured:
Assay in all cases: DTP human tumour cell line panel, 48 h
DU-145 prostate = test system: DU-145 prostate
EKVX NSCLC = test system: EKVX NSCLC
HCC-2998 colon = test system: HCC-2998 colon
HOP-62 NSCLC = test system: HOP-62 NSCLC
IGROV1 ovarian = test system: IGROV1 ovarian
K-562 leukemia = test system: K-562 leukemia
MDA-MB-435 = test system: MDA-MB-435
OVCAR-4 ovarian = test system: OVCAR-4 ovarian
RPMI-8226 leukemia = test system: RPMI-8226 leukemia
RXF 393 renal = test system: RXF 393 renal
SF-295 CNS = test system: SF-295 CNS
SNB-75 CNS = test system: SNB-75 CNS
TK-10 renal = test system: TK-10 renal
UACC-257 melanoma = test system: UACC-257 melanoma
UO-31 renal = test system: UO-31 renal

| Structure (SMILES) | TGI (DU-145 prostate) | TGI (EKVX NSCLC) | TGI (HCC-2998 colon) | TGI (HOP-62 NSCLC) | TGI (IGROV1 ovarian) | TGI (K-562 leukemia) | TGI (MDA-MB-435) | TGI (OVCAR-4 ovarian) | TGI (RPMI-8226 leukemia) | TGI (RXF 393 renal) | TGI (SF-295 CNS) | TGI (SNB-75 CNS) | TGI (TK-10 renal) | TGI (UACC-257 melanoma) | TGI (UO-31 renal) | GI50 (HOP-62 NSCLC) | GI50 (IGROV1 ovarian) | GI50 (RPMI-8226 leukemia) |
| --- | --- | --- | --- | --- | --- | --- | --- | --- | --- | --- | --- | --- | --- | --- | --- | --- | --- | --- |
| COC1=CC(=O)N(C(=O)[C@@H](OC(=O)[C@@H]2CCCN2C(=O)[C@@H]2CCCN2C(=O)[C@H](CC(C)C)N(C)C(=O)[C@@H](NC(=O)[C@@H](NC(=O)OCc2ccccc2)C(C)C)C(C)C)C(C)C)[C@H]1Cc1ccccc1 (Cbz-VV[NMeL]PP-X28) | > 100 µM | > 100 µM | > 100 µM | > 100 µM | > 100 µM | > 100 µM | > 100 µM | > 100 µM | > 100 µM | 38.9 µM | > 100 µM | 9.27 µM | > 100 µM | > 100 µM | > 100 µM |  |  |  |
| C/C=C/COc1cc(NC(=S)c2ccoc2C)ccc1OC | > 100 µM | > 100 µM | > 100 µM | > 100 µM | > 100 µM |  | > 100 µM | > 100 µM | 76.7 µM | > 100 µM | > 100 µM | > 100 µM | > 100 µM | > 100 µM | > 100 µM |  |  |  |
| COc1ccc(-c2c(C(C)=O)c(-c3ccccc3)n(C3OC(COC(C)=O)C(OC(C)=O)C(OC(C)=O)C3OC(C)=O)c(=S)c2C#N)cc1O (stereo not drawn) | 94.3 µM and > 100 µM | 79.3 µM and > 100 µM | 42 µM and 80.5 µM | 45.6 µM and > 100 µM | 35.6 µM and > 100 µM | > 100 µM | > 100 µM | 98.8 µM and > 100 µM | 61.3 µM and > 100 µM | > 100 µM | > 100 µM |  |  | > 100 µM | > 100 µM | 20.1 µM and > 100 µM | 12.4 µM and 38.2 µM | 11.3 µM and 47.5 µM |
| OC(C1CCCC1=N/N=C1/CCCC1C(O)(C(F)(F)Cl)C(F)(F)Cl)(C(F)(F)Cl)C(F)(F)Cl (stereo not drawn) | > 10 µM | > 10 µM | > 10 µM | > 10 µM | > 10 µM | > 10 µM | > 10 µM | > 10 µM | > 10 µM | > 10 µM | > 10 µM | > 10 µM | > 10 µM | > 10 µM |  |  |  |  |
| CC(=O)O[C@@H]1CC2[C@@H](CCC3Cc4nc5c(nc4C[C@@]32C)CC2CC[C@@H]3C(CC[C@@]4(C)C3CC[C@@H]4C(C)CCCC(C)C)[C@@]2(C)C5)C2C[C@@H]3OC4(CCC(C)CO4)C(C)[C@@H]3[C@]21C (stereo partly drawn) | > 100 µM | > 100 µM | > 100 µM | > 100 µM | > 100 µM | > 100 µM | > 100 µM | > 100 µM | > 100 µM | 50.3 µM | > 100 µM | 37.2 µM | > 100 µM | > 100 µM |  |  |  |  |
| CCOC(=O)C1CCCC1S(=O)(=O)c1ccc(C)cc1 (stereo not drawn) | > 100 µM | > 100 µM | > 100 µM | > 100 µM | > 100 µM | > 100 µM | > 100 µM | > 100 µM | > 100 µM | > 100 µM | > 100 µM | > 100 µM | > 100 µM |  | > 100 µM |  |  |  |
| CCOC(=O)/C(=C\NC#N)c1nc2ccccc2[nH]1 | > 100 µM | > 100 µM | > 100 µM | > 100 µM | > 100 µM |  | > 100 µM | > 100 µM | > 100 µM | > 100 µM | > 100 µM | > 100 µM | > 100 µM | > 100 µM | 6.28 µM |  |  |  |
| CNC(=O)C(NC(=O)[C@H](CC(C)C)NC(=O)[C@@H](S)CCN1C(=O)N(C)C(C)(C)C1=O)C(C)(C)C (stereo partly drawn) | > 100 µM | > 100 µM | > 100 µM | > 100 µM | > 100 µM | > 100 µM | > 100 µM | > 100 µM | > 100 µM | > 100 µM | > 100 µM |  | > 100 µM | > 100 µM | > 100 µM |  |  |  |
| COc1cc(OC)c(NC2=NCCO2)cc1Cl | > 100 µM | > 100 µM | 71.1 µM | > 100 µM | > 100 µM | > 100 µM | 38.4 µM | > 100 µM | > 100 µM | > 100 µM | > 100 µM | > 100 µM | > 100 µM | > 100 µM | > 100 µM |  |  |  |
| C/C(=N\Nc1ncnc2ccccc12)c1ccccn1 | 13.7 µM | > 52.6 µM | 36 µM | 1.07 µM | 2.84 µM | > 4.64 µM | 33 µM | > 51.5 µM | 1.62 µM | 17.3 µM | 17.9 µM | 39.7 µM | 18.6 µM | 8.65 µM | 1.75 µM |  |  |  |
| Cc1cc(O)c(/C=N/C(=O)NN)c(=O)o1 | > 100 µM | > 100 µM | > 100 µM | > 100 µM | > 100 µM |  | > 100 µM | > 100 µM |  | > 100 µM | > 100 µM | > 100 µM | > 100 µM | > 100 µM | > 100 µM |  |  |  |
| Cc1cc(NS(=O)(=O)c2ccc(NC(=O)c3cccc4c(NNc5ccc(S(N)(=O)=O)cc5)c5ccccc5nc34)cc2)no1 | > 100 µM | > 100 µM | 92.9 µM | > 100 µM | > 100 µM | > 100 µM | > 100 µM | > 100 µM | > 100 µM | > 100 µM | > 100 µM | 96.6 µM | > 100 µM | > 100 µM | > 100 µM |  |  |  |
| CN(C)C(=O)CO/N=C1/C(c2c(O)[nH]c3ccccc23)=Nc2ccccc21 | > 100 µM | > 100 µM | > 100 µM | > 100 µM | > 100 µM | > 100 µM | > 100 µM | > 100 µM | > 100 µM | 58.6 µM | > 100 µM | 89.8 µM | > 100 µM | > 100 µM | > 100 µM |  |  |  |
| CC(C)=CCC[C@@H](C)C1=C(O)C(Nc2ccccc2F)=C(C)C(=O)C1=O | > 67.8 µM | > 100 µM | > 100 µM | > 55.7 µM | > 69.5 µM | > 100 µM | > 100 µM | > 100 µM | > 89.1 µM | > 57.1 µM | 30.4 µM | > 78.8 µM | > 100 µM | > 100 µM | 47.7 µM |  |  |  |
| Cc1ccc(C(=O)/C=C/N2CCN(c3cccc(C(F)(F)F)c3)CC2)cc1 | 38 µM | 41.8 µM | 25.5 µM | 37.4 µM | 31.4 µM | 49.1 µM | 32.4 µM | > 100 µM | > 100 µM | 33.1 µM | 34 µM | 34.7 µM | 56.8 µM | 32.5 µM | 36.7 µM |  |  |  |
